Test results from patent US10947188B2, “Small molecule ferroptosis inducers” (THE TRUSTEES OF COLUMBIA UNIVERSITY IN THE CITY OF NEW YORK, priority 2016, dated 2021).
Read-outs that look alike come from different tables or passages of the source.

Tested on: HT-1080
Assay: Modulatory profiling: Alamar Blue viability, lethal compound cotreated with death modulator (EC50, AUC); for AUC HT.BHA: reference of the scale not given here; for AUC HT.EGTA: reference of the scale not given here
Format: cell-based
Parameters: AUC, modulator HT.3MA / AUC, modulator HT.ALLN / AUC HT.ATA / AUC HT.ActD / AUC HT.BHA / AUC HT.BHT / AUC HT.BocD / AUC HT.CHX / AUC HT.Co2+ / AUC HT.DPQ / AUC HT.EGTA / AUC HT.Lmim / AUC HT.NAD+ / AUC HT.Nec-1 / AUC HT.SP600125 / AUC HT.TLCK / AUC HT.U0126: unit not given beside the values
Settings: for AUC HT.ATA: HT-1080, modulator ATA; for AUC HT.ActD: HT-1080, modulator ActD; for AUC HT.BHA: HT-1080, modulator BHA; for AUC HT.BHT: HT-1080, modulator BHT; for AUC HT.BocD: HT-1080, modulator BocD; for AUC HT.CHX: HT-1080, modulator CHX; for AUC HT.Co2+: HT-1080, modulator Co2+; for AUC HT.CspA: HT-1080, modulator CspA; for AUC HT.DPQ: HT-1080, modulator DPQ; for AUC HT.Gd3+: HT-1080, modulator Gd3+; for AUC HT.LNAME: HT-1080, modulator LNAME; for AUC HT.Lmim: HT-1080, modulator Lmim; for AUC HT.NAD+: HT-1080, modulator NAD+; for AUC HT.NMMA: HT-1080, modulator NMMA; for AUC HT.Nec-1: HT-1080, modulator Nec-1; for AUC HT.Pepstatin: HT-1080, modulator Pepstatin; for AUC HT.SP600125: HT-1080, modulator SP600125; for AUC HT.TLCK: HT-1080, modulator TLCK; for AUC HT.U0126: HT-1080, modulator U0126; for HT.atoc (AUC) / HT.bCarotene (AUC) / HT.deferox (AUC) / HT.digoxin (AUC) / HT.trolox (AUC) / HT.zVAD (AUC): HT-1080; for HT.atoc (AUC): modulator atoc; for HT.bCarotene (AUC): modulator bCarotene; for HT.deferox (AUC): modulator deferox; for HT.digoxin (AUC): modulator digoxin; for HT.trolox (AUC): modulator trolox; for HT.zVAD (AUC): modulator zVAD; for AUC, modulator HT.3MA / AUC, modulator HT.ALLN: HT-1080 cells, modulatory profile value (AUC); for AUC, modulator HT.3MA: lethal compound cotreated with modulator 3MA; for AUC, modulator HT.ALLN: lethal compound cotreated with modulator ALLN

Structure (SMILES)	AUC HT.ATA	AUC HT.ActD	AUC HT.BHA	AUC HT.BHT	AUC HT.BocD	AUC HT.CHX	AUC HT.Co2+	AUC HT.CspA	AUC HT.DPQ	AUC HT.Gd3+	AUC HT.LNAME	AUC HT.Lmim	AUC HT.NAD+	AUC HT.NMMA	AUC HT.Nec-1	AUC HT.Pepstatin	AUC HT.SP600125	AUC HT.TLCK	AUC HT.U0126	HT.atoc (AUC)	other results
COc1cc2c(c(OC)c1OC)-c1ccc(OC)c(=O)cc1[C@@H](NC(C)=O)CC2 [Colchicine]	0.1325	0.01343	0.01506	−0.006747	0.1264	0.04333	0.1098	−0.1209	0.01511	0.01351	0.008236	0.1199	0.1471	0.008585	0.01661	0.004413	−0.02858	0.0306	0.2237	−0.0173	AUC HT.EGTA (HT-1080, modulator EGTA): −0.000119; HT.bCarotene (AUC): 0.01723; HT.deferox (AUC): 0.2984; HT.digoxin (AUC): 0.1359; HT.trolox (AUC): 0.01591; HT.zVAD (AUC): 0.134; AUC, modulator HT.3MA: 0.01861; AUC, modulator HT.ALLN: 0.1932
COc1ccc(N(C(=O)CCl)C(C(=O)NCCc2ccccc2)c2cccs2)cc1 (centres unmarked) [DPI4]	−0.03622	−0.006831	0.285	0.2486	−0.01407	−0.008699	0.1741	5.8801E−05	0.05528	−0.02121	0.01547	0.3086	0.02441	−0.0007723	0.05135	−0.003295	−0.04284	0.1761	0.3423	0.3523	AUC HT.EGTA (HT-1080, modulator EGTA): 0.0361; HT.bCarotene (AUC): −0.01264; HT.deferox (AUC): 0.4095; HT.digoxin (AUC): −0.06343; HT.trolox (AUC): 0.3151; HT.zVAD (AUC): −0.04451; AUC, modulator HT.3MA: −0.001458; AUC, modulator HT.ALLN: −0.1648
COc1cccc2c1C(=O)c1c(O)c3c(c(O)c1C2=O)C[C@@](O)(C(C)=O)C[C@@H]3O[C@H]1C[C@H](N)[C@H](O)[C@H](C)O1 [Daunorubicin]	−0.00186	0.01442	0.0107	−0.05609	0.0522	0.05854	0.1614	−0.0792	0.008882	0.01529	−0.009852	0.06112	0.1305	0.0183	0.02174	0.005649	−0.0113	0.06429	−0.0159	0.009895	AUC HT.EGTA: 0.03262; HT.bCarotene (AUC): 0.008265; HT.deferox (AUC): 0.1515; HT.digoxin (AUC): 0.1398; HT.trolox (AUC): −0.002722; HT.zVAD (AUC): 0.04455; AUC, modulator HT.3MA: 0.02823; AUC, modulator HT.ALLN: 0.008692
COc1cccc2c1C(=O)c1c(O)c3c(c(O)c1C2=O)C[C@@](O)(C(=O)CO)C[C@@H]3O[C@H]1C[C@H](N)[C@H](O)[C@H](C)O1 [Doxorubicin]	0.02841	0.007993	0.02167	−0.06815	0.05959	0.08993	0.2627	−0.1098	0.01107	0.03741	0.006685	0.08822	0.1872	0.02832	0.007577	0.008958	−0.02148	0.0633	−0.02036	0.00993	AUC HT.EGTA (HT-1080, modulator EGTA): 0.03492; HT.bCarotene (AUC): 0.01512; HT.deferox (AUC): 0.2044; HT.digoxin (AUC): 0.1981; HT.trolox (AUC): −0.01413; HT.zVAD (AUC): 0.05138; AUC, modulator HT.3MA: 0.03088; AUC, modulator HT.ALLN: 0.03102
CS[C@H]1SC[C@H]2C(=O)N(C)[C@@H](C(C)C)C(=O)OC[C@@H](NC(=O)c3cnc4ccccc4n3)C(=O)N[C@@H](C)C(=O)N(C)[C@@H]1C(=O)N(C)[C@@H](C(C)C)C(=O)OC[C@@H](NC(=O)c1cnc3ccccc3n1)C(=O)N[C@@H](C)C(=O)N2C [Echinomycin]	0.04087	0.06604	0.02424	−0.04076	0.07385	0.1436	0.1492	−0.08426	0.006918	0.01526	0.01178	0.06784	0.178	−0.0009733	0.02093	0.006861	0.08228	0.006436	0.01676	0.1464	AUC HT.EGTA (HT-1080, modulator EGTA): 0.006916; HT.bCarotene (AUC): −0.004968; HT.deferox (AUC): 0.1665; HT.digoxin (AUC): 0.09969; HT.trolox (AUC): −0.02423; HT.zVAD (AUC): 0.07367; AUC, modulator HT.3MA: 0.3083; AUC, modulator HT.ALLN: 0.084
